Assay results taken from paper PMC6600545, “Novel Peptide-Based Inhibitors for Microtubule Polymerization in Phytophthora capsici” (International Journal of Molecular Sciences, 2019).
Several values for one entry are separate records, joined by “and”; a condition that tells them apart may be missing. Identical values can stand only once. Peptide text beside a SMILES is read from it. * marks the point of attachment. FITC = O=C1OC2(c3ccc(O)cc3Oc3cc(O)ccc32)c2ccc(NC(=S)*)cc21

Key:
[1] = cited from earlier work
From the text: In the past decade, several new chemical classes which display potent antifungal activity targeting fungal α, β-tubulin have been developed such as zoxamide, inhibiting β-tubulin in Phytophthora sojae (P. sojae); methyl benzimidazole carbamate, (MBC) inhibiting β-tubulin in Podosphaera xanthii (P. xanthii); and benomyl. One of these microtubule-targeted fungicides is benomyl. In the presence of benomyl, the polymerization of tubulin to microtubules is inhibited resulting in retarded cell division.

[2] = target: T1, P. capsici α, β-tubulin microtubule polymerization (Phytophthora capsici, UniProt A4ZYP2+A4ZYP4); test: Inhibition of microtubule polymerization by phages (turbidity at 350 nm); assay type: biochemical; details: phage 10 nM, 40 min reaction time
Procedure: As a next step, all 15 phages were used to determine whether the phages could inhibit the activity of microtubule polymerization of P. capsici. The concentration of each phage was constant at 10 nM, and the polymerization was measured after 40 min of reaction time.
(§1) The polymerization and inhibition of microtubule assembly were studied using a spectroscopic method. Purified α, β-tubulins were mixed with 120 μL of polymerization buffer (80 mM PIPES (pH 7.4), 1 mM EGTA, 1 mM MgCl2, and 5% v/v glycerol) to a final concentration of 0.5 mg/mL total tubulin in 300 μL final reaction mixture. The polymerization assay was initiated with the addition of 2.5 mM GTP, and the reaction was continued until it reached the saturation point for 40 min. The contents were mixed, and the resulting turbidity due to microtubule formation was measured at 350 nm using an Optizen 2120 UV spectrophotometer. […] Furthermore, the polymerization and inhibition of microtubule formation were also confirmed through sodium dodecyl sulfate–polyacrylamide gel electrophoresis (SDS-PAGE), Western blot, and transmission electron microscopy (TEM). For the TEM analysis, samples were prepared according to the protocol reported by Vulevic et al.. Briefly, 30 μL of the saturated product of the polymerization reaction was immediately diluted with 10 μL of 0.4% glutaraldehyde, and the mixture was incubated for 3 min at room temperature. Then, 10 μL of the solution was applied to a 200 mesh, copper/formvar-coated grid (EMS) for 1 min, which was sequentially washed using two drops of dH2O and stained for 2 min with a drop of 2% uranyl acetate. Excess stain was removed by blotting with filter paper. Samples were air-dried and later viewed under a TEM.

[3] = target: P. capsici α, β-tubulin; test: Fluorometric binding affinity of FITC-labeled synthetic peptides; set-up: species or system Phytophthora capsici; details: FITC-labeled peptide, immobilised tubulin in 96-well plate, 2 h, ex 495 / em 520 nm
From the text: These peptides were synthesized with FITC-label for detection of the difference in the fluorescence by the absence and presence of target binding using a fluorescence microplate reader (see the Materials and Methods).
(§2) Peptides were synthesized by AnyGen Inc. (Gwangju, Korea). To prevent unintended interaction with other molecules, the peptides used in this study were modified by acetylation at the N-terminus and amidation at the C-terminus. With the addition of a lysine residue, the peptides were labeled with FITC at the C-terminus. This labeling was used for the identification of the target binding property by means of fluorescence detection. The purity of the synthesized peptides was greater than 90%, as assessed by HPLC. The peptides were further characterized to estimate their binding affinity and specificity. Briefly, serial dilutions of FITC-labeled peptides were incubated with α, β-tubulin proteins immobilized on a 96-well plate for 2 h. The binding affinities of the FITC-labeled peptides were determined by a fluorescence microplate reader (Molecular Devices, Sunnyvale, CA, USA) using the soft Max V5 system, with excitation at 495 nm and emission at 520 nm. The specificities of identified peptides for the target proteins were evaluated using the same fluorometric method described above, incorporating homologous H. sapiens α, β-tubulin. BSA protein was used as a negative control.

[4] = target: P. capsici α, β-tubulin; test: ELISA binding affinity of phages displaying tubulin-binding peptides (anti-M13 antibody); set-up: species or system Phytophthora capsici; details: phage displaying the peptide, 5 μg tubulin per well, OD 450 nm
Procedure: Phage display was conducted with the M13 phage library in an effort to identify specific binding peptides to α, β-tubulin proteins from P. capsici. After five rounds of biopanning toward each target protein, 169 phage clones for α-tubulin and 112 for β-tubulin were selected. […] Testing was done for all the phages with different sequences to estimate their binding affinities for α, β-tubulins of P. capsici.
Phages displaying α, β-tubulin binding peptides were prepared, and their concentrations were determined by measurement of plaque-forming units (pfu) per volume. The binding affinities of phages displaying α, β-tubulin binding peptides were determined by the ELISA method, as described previously. Briefly, α, β-tubulin binding peptides were added in a concentration-dependent manner to a 96-well plate containing α, β-tubulin protein (5 μg per well), as indicated. The wells were then washed 10 times with 1X TBST (50 mM Tris-HCl, pH 7.5, 150 mM NaCl, and 0.1% Tween-20), followed by probing with an anti-M13 antibody (mouse monoclonal antibody, 1:5000 in 1X TBST, 0.2 μg·ml^−1; Amersham Bioscience, Little Chalfont, UK) for 1 h at room temperature. After washing five times with 1 X TBST buffer, anti-mouse IgG-horseradish peroxidase (HRP) conjugate was added, and the mixture was incubated for 1 h, followed by a color-developing reaction with tetramethylbenzidine (TMB) substrate solution ([TMB]/H2O2; Chemicon, Billerica, MA, USA). After 15 min, the reaction was terminated by the addition of 1 M H2SO4, and the optical densities were measured at 450 nm with a Biotrak multiwall plate reader (Amersham Bioscience).

[5] = target: T1, P. capsici α, β-tubulin microtubule polymerization; test: biochemical
Procedure: The IC50 values of the four synthetic peptides were determined by fitting the relative inhibition data via the below Equation (1), where V0 is the reaction rate without inhibitor, Vf is the rate at saturation inhibition, and [I] is the inhibitor concentration. (1) V=(V0−Vf)×IC50/IC50+[I]+Vf
as §1

[6] = target: H. sapiens α, β-tubulin; test: Fluorometric binding affinity of FITC-labeled synthetic peptides (specificity); details: FITC-labeled peptide, immobilised tubulin in 96-well plate, 2 h, ex 495 / em 520 nm
From the text: Investigation of the binding affinity for α, β-tubulins of H. sapiens to the synthesized peptides is necessary because peptide binding to H. sapiens tubulins could trigger severe toxicity in humans. First, α, β-tubulins of H. sapiens were individually overexpressed and purified (Figure 1). […] In addition, bovine serum albumin (BSA) was used as another control to confirm the specificity of the synthesized peptides. No significant binding fluorescence intensities for BSA were detected.
as §2

[7] = tested on: H. sapiens α, β-tubulin microtubule polymerization; test: Microtubule polymerization inhibition assay with synthetic peptides (turbidity at 350 nm); assay type: biochemical; details: 0.5 mg/mL total tubulin, 2.5 mM GTP, 40 min
From the text: (1) V=(V0−Vf)×IC50/IC50+[I]+Vf
Excess stain was removed by blotting with filter paper.

[8] = tested on: P. capsici microtubules; test: TEM analysis of polymerized microtubules; assay type: biochemical, Phytophthora capsici; details: polymerized for 40 min
Procedure: as §1, with “Excess stain was removed by blotting with filter paper. Samples were air-dried and later viewed under a TEM.” left out

T1 sequence (A4ZYP4 1-453): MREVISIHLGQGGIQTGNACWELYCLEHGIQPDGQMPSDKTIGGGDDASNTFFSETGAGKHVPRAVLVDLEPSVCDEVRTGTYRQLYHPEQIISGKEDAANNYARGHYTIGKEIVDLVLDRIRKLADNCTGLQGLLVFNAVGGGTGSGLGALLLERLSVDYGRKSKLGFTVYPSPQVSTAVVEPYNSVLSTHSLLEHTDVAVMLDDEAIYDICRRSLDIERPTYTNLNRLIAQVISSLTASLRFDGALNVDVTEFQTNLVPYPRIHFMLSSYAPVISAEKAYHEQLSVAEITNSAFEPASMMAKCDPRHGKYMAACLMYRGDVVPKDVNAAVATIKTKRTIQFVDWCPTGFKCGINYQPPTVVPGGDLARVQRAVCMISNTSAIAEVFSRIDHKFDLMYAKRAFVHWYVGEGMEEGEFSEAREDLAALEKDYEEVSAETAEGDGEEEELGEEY
T1 sequence (A4ZYP2 1-446): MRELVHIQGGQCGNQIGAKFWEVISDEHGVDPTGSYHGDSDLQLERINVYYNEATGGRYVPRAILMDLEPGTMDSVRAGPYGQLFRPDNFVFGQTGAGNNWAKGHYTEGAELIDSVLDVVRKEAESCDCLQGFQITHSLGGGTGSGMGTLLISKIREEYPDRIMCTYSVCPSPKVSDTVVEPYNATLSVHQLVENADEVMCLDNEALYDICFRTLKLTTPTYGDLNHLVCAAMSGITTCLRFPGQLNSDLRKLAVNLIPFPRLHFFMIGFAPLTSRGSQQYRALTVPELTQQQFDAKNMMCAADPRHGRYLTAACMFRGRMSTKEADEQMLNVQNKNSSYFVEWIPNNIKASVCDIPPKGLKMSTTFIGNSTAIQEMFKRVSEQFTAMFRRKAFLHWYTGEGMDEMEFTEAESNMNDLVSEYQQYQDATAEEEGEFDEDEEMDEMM

In the case of CCCCNC(=O)n1c(NC(=O)OC)nc2ccccc21 [benomyl], the solubility in water [1] is listed as “low solubility”.

With CC[C@H](C)[C@H](NC(C)=O)C(=O)N[C@H](C(=O)N[C@@H](CCSC)C(=O)N[C@@H](CO)C(=O)N[C@H](C(=O)N1CCC[C@H]1C(=O)N[C@@H](C)C(=O)N[C@@H](Cc1c[nH]cn1)C(=O)N[C@@H](CC(N)=O)C(=O)N[C@@H](C)C(=O)N[C@@H](CCCCN)C(=O)N[C@@H](CCC(=O)O)C(=O)N[C@@H](CCCCNC(=S)Nc1ccc2c(c1)C(=O)OC21c2ccc(O)cc2Oc2cc(O)ccc21)C(N)=O)C(C)C)[C@@H](C)O [α_P1] (Ac-ITMSVPAHNAKEK(FITC)-NH2) the “percent inhibition of microtubule polymerization” value (“percent inhibition” for short) [2] was 28%, the Kd [3] was 69.5 ± 6.4 nM and the Kd [4] was 0.0342 ± 0.00211 nM. The IC50 [5] was 2690 nM and the Kd [6] was 134 ± 48.8 nM.

With CC(=O)N[C@H](C(=O)N[C@@H](CC(N)=O)C(=O)N[C@H](C(=O)N[C@@H](CO)C(=O)N[C@@H](Cc1c[nH]c2ccccc12)C(=O)N[C@@H](CC(=O)O)C(=O)N1CCC[C@H]1C(=O)N[C@@H](CCC(N)=O)C(=O)N[C@@H](Cc1ccc(O)cc1)C(=O)N[C@@H](CC(N)=O)C(=O)N1CCC[C@H]1C(=O)N[C@@H](CC(=O)O)C(=O)N[C@@H](CCCCNC(=S)Nc1ccc2c(c1)C(=O)OC21c2ccc(O)cc2Oc2cc(O)ccc21)C(N)=O)[C@@H](C)O)[C@@H](C)O [α_P2] (Ac-TNTSWDPQYNPDK(FITC)-NH2) the “percent inhibition” value [2] was 54%, the Kd [3] was 93.9 ± 11.2 nM and the IC50 [7] was 2430 nM. It also gave a Kd [4] of 0.0801 ± 0.00113 nM, an IC50 [5] of 802 nM and a Kd [6] of 256 ± 31.1 nM. The “microtubule morphology by TEM” value ([8]; 1 μM peptide) was “Amorphous morphology of microtubules occurred predominantly” and the “microtubule formation by TEM” value ([8]; Ten micromolar peptide) was “completely inhibited the formation of microtubules”.

In the case of CC(=O)N[C@@H](CC(N)=O)C(=O)N[C@@H](Cc1c[nH]cn1)C(=O)N[C@@H](Cc1ccccc1)C(=O)N[C@H](C(=O)N1CCC[C@H]1C(=O)N[C@H](C(=O)N[C@@H](CO)C(=O)N[C@@H](CC(N)=O)C(=O)N[C@@H](CCCNC(=N)N)C(=O)N[C@@H](Cc1ccccc1)C(=O)N[C@@H](CC(N)=O)C(=O)N[C@@H](C)C(=O)N[C@@H](CCCCNC(=S)Nc1ccc2c(c1)C(=O)OC21c2ccc(O)cc2Oc2cc(O)ccc21)C(N)=O)[C@@H](C)O)C(C)C [α_P3] (Ac-NHFVPTSNRFNAK(FITC)-NH2), the “percent inhibition” value [2] is reported as 32%, the Kd [3] is reported as 79.2 ± 6.8 nM and the IC50 [7] is reported as 4110 nM. For the same compound, the Kd [4] was 0.12 ± 0.00123 nM, the IC50 [5] was 1240 nM and the Kd [6] was 162 ± 8.1 nM.

In the case of CC(=O)N[C@H](C(=O)N[C@@H](CC(N)=O)C(=O)N1CCC[C@H]1C(=O)N[C@@H](CCC(N)=O)C(=O)N[C@@H](C)C(=O)N[C@@H](CCCNC(=N)N)C(=O)N[C@@H](Cc1c[nH]c2ccccc12)C(=O)N[C@@H](Cc1c[nH]cn1)C(=O)N[C@@H](CCC(=O)O)C(=O)N[C@@H](Cc1ccc(O)cc1)C(=O)N[C@@H](CC(N)=O)C(=O)N[C@@H](Cc1ccccc1)C(=O)N[C@@H](CCCCNC(=S)Nc1ccc2c(c1)C(=O)OC21c2ccc(O)cc2Oc2cc(O)ccc21)C(N)=O)[C@@H](C)O [β_P1] (Ac-TNPQARWHEYNFK(FITC)-NH2), the “percent inhibition” value [2] is reported as 21%, the Kd [3] is reported as 49.7 ± 2.9 nM and the Kd [4] is reported as 0.0419 ± 0.00105 nM. The IC50 [5] was 6910 nM and the Kd [6] was 455 ± 50.7 nM.

“IGNSWPLTSHSW [α_P10, M13 phage clone displaying 12-mer […], selected against P. capsici α-tubulin]” showed a Kd [4] of 0.144 ± 0.0011 nM.

“KVYAINSWTNYY [α_P13, M13 phage clone displaying 12-mer […], selected against P. capsici α-tubulin]” gave a Kd [4] of 1.2 ± 0.0902 nM.

In the case of “LMNPATMKTSSG [α_P7, M13 phage clone displaying 12-mer […], selected against P. capsici α-tubulin]”, the Kd [4] is reported as 0.36 ± 0.00187 nM.

Compound “MVHSKASMWPGK [α_P12, M13 phage clone displaying 12-mer […], selected against P. capsici α-tubulin]” has a Kd [4] of 0.69 ± 0.00227 nM.

With NAITLLSPPLHK [α_P5] the “percent inhibition” value [2] was 5% and 4% and the Kd [4] was 0.0571 ± 0.00177 nM.

With NFTINGKTHRLW [α_P4] the “percent inhibition” value [2] was 19% and the Kd [4] was 0.298 ± 0.00145 nM.

With NPIGDNYSGTGL [β_P2] the “percent inhibition” value [2] was 2% and the Kd [4] was 0.0371 ± 0.00141 nM.

Work on “SNMKPSMEYSSR [α_P9, M13 phage clone displaying 12-mer […], selected against P. capsici α-tubulin]” yielded a Kd [4] of 0.273 ± 0.00179 nM.

For “SSHNHDSYHGTK [α_P6, M13 phage clone displaying 12-mer […], selected against P. capsici α-tubulin]”, the Kd [4] was 0.476 ± 0.00273 nM.

“SYNTFMYERASK [α_P11, M13 phage clone displaying 12-mer […], selected against P. capsici α-tubulin]” showed a Kd [4] of 0.562 ± 0.00169 nM.

In the case of “TNTSWDPQYNPD [α_P8, M13 phage clone displaying 12-mer […]; (so in the source), selected against P. capsici α-tubulin]”, the “percent inhibition” value [2] is reported as 4% and the Kd [4] is reported as 0.0476 ± 0.00251 nM.
